{"source": "ChEMBL document CHEMBL5038613", "about": "“Synthesis, functional proteomics and biological evaluation of new 5-pyrazolyl ureas as potential anti-angiogenic compounds” (Eur J Med Chem, 2021)", "key": {"HUVEC [1]": {"test_system": "HUVEC", "test": "(§1) Antiproliferative activity against HUVEC assessed as inhibition of cell growth at 10 uM measured after 24 hrs by EdU incorporation based fluorescence microscopic analysis", "format": "toxicity", "settings": "human, huvec, 24 h, 10 µM"}, "HUVEC [2]": {"test_system": "HUVEC", "test": "(§2) Antiproliferative activity against HUVEC assessed as inhibition of cell growth at 20 uM measured after 24 hrs by EdU incorporation based fluorescence microscopic analysis", "format": "toxicity", "settings": "human, huvec, 24 h, 20 µM"}, "HUVEC [3]": {"test_system": "HUVEC", "test": "Antiproliferative activity against HUVEC assessed as inhibition of cell growth at 100 uM measured after 24 hrs by EdU incorporation based fluorescence microscopic analysis", "format": "toxicity", "settings": "human"}, "HUVEC [4]": {"test_system": "HUVEC", "test": "Anti-angiogenic activity against HUVEC cells assessed as decrease in ERK phosphorylation level at 20 uM preincubated for 10 mins followed by VEGF addition and measured after 20 mins by western blot analysis", "format": "functional, cell-based", "settings": "Homo sapiens, time 30.0 min"}, "HUVEC [5]": {"test_system": "HUVEC", "test": "Anti-angiogenic activity against HUVEC cells assessed as decrease in ERK phosphorylation level at 20 uM preincubated for 10 mins followed by VEGF addition and measured after 20 mins in presence of Na3VO4 by western blot analysis", "format": "functional, cell-based", "settings": "Homo sapiens, time 30.0 min"}, "HUVEC [6]": {"test_system": "HUVEC", "test": "Anti-angiogenic activity against HUVEC cells assessed as effect on SRC phosphorylation at 20 uM preincubated for 10 mins followed by VEGF addition and measured after 20 mins by western blot analysis", "format": "functional, cell-based", "settings": "Homo sapiens, time 30.0 min"}, "CCRF-CEM": {"test_system": "CCRF-CEM", "test": "Antiproliferative activity against human CCRF-CEM cells assessed as inhibition of cell growth at 10 uM", "format": "functional", "parameters": "scale not given: the % may be the effect or the level left"}, "NCI-H522": {"test_system": "NCI-H522", "test": "Antiproliferative activity against human NCI-H522 cells assessed as inhibition of cell growth at 10 uM", "format": "functional", "parameters": "scale not given: the % may be the effect or the level left"}, "K562": {"test_system": "K562", "test": "Antiproliferative activity against human K-562 cells assessed as inhibition of cell growth at 10 uM", "format": "functional", "parameters": "scale not given: the % may be the effect or the level left"}, "RPMI-8226": {"test_system": "RPMI-8226", "test": "Antiproliferative activity against human RPMI-8226 cells assessed as inhibition of cell growth at 10 uM", "format": "functional", "parameters": "scale not given: the % may be the effect or the level left"}, "M14": {"test_system": "M14", "test": "Antiproliferative activity against human M14 cells assessed as inhibition of cell growth at 10 uM", "format": "functional", "parameters": "scale not given: the % may be the effect or the level left"}, "[7]": {"test": "as §1", "format": "toxicity", "settings": "human, HUVEC cells, read-out: Activity"}, "[8]": {"test": "as §2", "format": "toxicity", "settings": "human, HUVEC cells, read-out: Activity"}, "HUVEC [9]": {"test_system": "HUVEC", "test": "Effect on MAPK1 expression level in HUVEC cells at 100 uM by western blot analysis", "format": "functional, cell-based", "settings": "Homo sapiens"}, "HUVEC [10]": {"test_system": "HUVEC", "test": "Effect on PP1gamma expression level in HUVEC cells at 1 uM by western blot analysis", "format": "functional, cell-based", "settings": "Homo sapiens"}, "HL-60(TB)": {"test_system": "HL-60(TB)", "test": "Antiproliferative activity against human HL-60(TB) cells assessed as inhibition of cell growth at 10 uM", "format": "functional", "parameters": "scale not given: the % may be the effect or the level left"}, "HCT-116": {"test_system": "HCT-116", "test": "Antiproliferative activity against human HCT-116 cells assessed as inhibition of cell growth at 10 uM", "format": "functional", "parameters": "scale not given: the % may be the effect or the level left"}, "SK-MEL-2": {"test_system": "SK-MEL-2", "test": "Antiproliferative activity against human SK-MEL-2 cells assessed as inhibition of cell growth at 10 uM", "format": "functional", "parameters": "scale not given: the % may be the effect or the level left"}, "SK-MEL-5": {"test_system": "SK-MEL-5", "test": "Antiproliferative activity against human SK-MEL-5 cells assessed as inhibition of cell growth at 10 uM", "format": "functional", "parameters": "scale not given: the % may be the effect or the level left"}}, "note": "Activity calls are given as the source filed them. No cut-off for these calls is given here.", "data": [{"smiles": "CCCC(O)Cn1ncc(C(=O)OCC)c1NC(=O)Nc1cccc(C(F)(F)F)c1", "note": "(configuration not stated)", "values": [{"measurement": "Activity", "setting": "HUVEC [1]", "result": "Non-Toxic"}, {"measurement": "Activity", "setting": "HUVEC [2]", "result": "Non-Toxic"}, {"measurement": "Activity", "setting": "HUVEC [3]", "result": "Toxic"}, {"measurement": "Activity", "setting": "HUVEC [4]", "result": "inactive"}, {"measurement": "Activity", "setting": "HUVEC [5]", "result": "inactive"}, {"measurement": "Activity", "setting": "HUVEC [6]", "result": "inactive"}]}, {"smiles": "CCCC(O)Cn1ncc(C(=O)OCC)c1NC(=O)NCc1cccc(C(F)(F)F)c1", "note": "(configuration not stated)", "values": [{"measurement": "Activity", "setting": "CCRF-CEM", "result": 100, "unit": "%"}, {"measurement": "Activity", "setting": "NCI-H522", "result": 54, "unit": "%"}, {"measurement": "Activity", "setting": "K562", "result": 53, "unit": "%"}, {"measurement": "Activity", "setting": "RPMI-8226", "result": 53, "unit": "%"}, {"measurement": "Activity", "setting": "M14", "result": 42, "unit": "%"}, {"measurement": "inhibition at 24 h, 10 µM", "setting": "[7]", "result": 20, "unit": "%"}, {"measurement": "inhibition at 24 h, 20 µM", "setting": "[8]", "result": 30, "unit": "%"}, {"measurement": "Activity", "setting": "HUVEC [3]", "result": "Toxic"}, {"measurement": "Activity", "setting": "HUVEC [4]", "result": "Active"}, {"measurement": "Activity", "setting": "HUVEC [5]", "result": "inactive"}, {"measurement": "Activity", "setting": "HUVEC [6]", "result": "inactive"}, {"measurement": "Activity", "setting": "HUVEC [9]", "result": "Active"}, {"measurement": "Activity", "setting": "HUVEC [10]", "result": "Active"}]}, {"smiles": "CCOC(=O)c1cnn(CC(C)O)c1NC(=O)NCc1ccc(F)cc1", "note": "(configuration not stated)", "values": [{"measurement": "Activity", "setting": "HL-60(TB)", "result": 53, "unit": "%"}]}, {"smiles": "CCCC(O)Cn1ncc(C(=O)OCC)c1NC(=O)NCc1ccc(F)cc1", "note": "(configuration not stated)", "values": [{"measurement": "Activity", "setting": "NCI-H522", "result": 53, "unit": "%"}]}, {"smiles": "CCOC(=O)c1cnn(CC(O)CC)c1NC(=O)NCc1ccc(C(F)(F)F)cc1", "note": "(configuration not stated)", "values": [{"measurement": "Activity", "setting": "NCI-H522", "result": 40, "unit": "%"}]}, {"smiles": "CCOC(=O)c1cnn(CC(C)O)c1NC(=O)NCc1ccccc1C(F)(F)F", "note": "(configuration not stated)", "values": [{"measurement": "Activity", "setting": "HL-60(TB)", "result": 42, "unit": "%"}]}, {"smiles": "CCCC(O)Cn1ncc(C(=O)OCC)c1NC(=O)NCc1ccc(C(F)(F)F)cc1", "note": "(configuration not stated)", "values": [{"measurement": "Activity", "setting": "HL-60(TB)", "result": 60, "unit": "%"}, {"measurement": "Activity", "setting": "CCRF-CEM", "result": 60, "unit": "%"}, {"measurement": "Activity", "setting": "NCI-H522", "result": 50, "unit": "%"}, {"measurement": "Activity", "setting": "K562", "result": 65, "unit": "%"}, {"measurement": "Activity", "setting": "RPMI-8226", "result": 74, "unit": "%"}, {"measurement": "Activity", "setting": "HCT-116", "result": 59, "unit": "%"}, {"measurement": "Activity", "setting": "SK-MEL-2", "result": 49, "unit": "%"}, {"measurement": "Activity", "setting": "SK-MEL-5", "result": 59, "unit": "%"}]}, {"smiles": "CCOC(=O)c1cnn(CC(O)CC)c1NC(=O)NCc1cccc(F)c1", "note": "(configuration not stated)", "values": [{"measurement": "Activity", "setting": "NCI-H522", "result": 40, "unit": "%"}]}, {"smiles": "CCCC(O)Cn1ncc(C(=O)OCC)c1NC(=O)NCc1ccccc1C(F)(F)F", "note": "(configuration not stated)", "values": [{"measurement": "Activity", "setting": "NCI-H522", "result": 59, "unit": "%"}]}, {"smiles": "CCOC(=O)c1cnn(CC(C)O)c1NC(=O)NCc1cccc(F)c1", "note": "(configuration not stated)", "values": [{"measurement": "Activity", "setting": "CCRF-CEM", "result": 100, "unit": "%"}]}, {"smiles": "CCCC(O)Cn1ncc(C(=O)OCC)c1NC(=O)NCc1cccc(F)c1", "note": "(configuration not stated)", "values": [{"measurement": "Activity", "setting": "HL-60(TB)", "result": 41, "unit": "%"}, {"measurement": "Activity", "setting": "NCI-H522", "result": 42, "unit": "%"}, {"measurement": "Activity", "setting": "HUVEC [1]", "result": "Non-Toxic"}, {"measurement": "Activity", "setting": "HUVEC [2]", "result": "Non-Toxic"}, {"measurement": "Activity", "setting": "HUVEC [3]", "result": "Toxic"}, {"measurement": "Activity", "setting": "HUVEC [4]", "result": "inactive"}]}, {"smiles": "CCOC(=O)c1cnn(CC(C)O)c1NC(=O)NCc1ccccc1F", "note": "(configuration not stated)", "values": [{"measurement": "Activity", "setting": "HL-60(TB)", "result": 44, "unit": "%"}]}, {"smiles": "CCCC(O)Cn1ncc(C(=O)OCC)c1NC(=O)NCc1ccccc1F", "note": "(configuration not stated)", "values": [{"measurement": "Activity", "setting": "NCI-H522", "result": 44, "unit": "%"}]}]}
